Literature values in patent US20110039787A1, “COMPOSITIONS, KITS AND METHODS FOR TREATING BENIGN PROSTATE HYPERPLASIA” (priority 2009, published 2011).

Tested on: BPH
Conditions: cited from earlier work

Row | Molecule | IPSS change (maximum of known medicinal treatments, FIG. 2) (AUA Guideline on the Management of BPH (2006), historical comparison) | Maximum reduction in mean IPSS (preliminary study, European Urology 54 (2008) 170-180)
1 | CCOc1ccccc1OCCN[C@H](C)Cc1ccc(OC)c(S(N)(=O)=O)c1 [Tamsulosin] | approximately −7.5 | –
2 | cetrorelix glucoronate | – | −5.4 to −5.9
